From US9464106B2, “Oligonucleotides useful for detecting and analyzing nucleic acids of interest” (Exiqon A/S, priority 2002, dated 2016)
l = locked nucleic acid (LNA); [5mC] = 5-methylcytosine; d = 2'-deoxy (DNA)

Tested on: yeast HSP78 (YDR258C) sequence
Assay: Duplex melting temperatures of HSP78 25-mer capture probes (UV spectrophotometer)
Details: 25-mer capture probe duplex with complementary target; design PM = perfectly matched, MM = single mismatch; DNA, LNA_T (T) or LNA_TC (TC) substituted

Row | Substance | Average duplex melting temp.
1 | 12783 (DNA ATCAAATAGGAATTCAGCTAAAGCC; DNA at ACG, LNA at T, backbone not given here; further chemistry not fully specified) [compound 12783] | 66.3 °C
2 | 12784 (DNA GACCTAAGAACATAAAGCTGGCAAT; sugars from the 5' end ddddldddddddldddddldddddd, backbone not given here; further chemistry not fully specified) [compound 12784] | 67.5 °C
3 | 12785 (DNA AAATAGCAGCAATGGCCTCGTCTTG; DNA at ACG, LNA at T, backbone not given here; further chemistry not fully specified) [compound 12785] | 77.2 °C
4 | 12786 (DNA ATAGCAGCAATGGCCTCGTCTTGGC; DNA at ACG, LNA at T, backbone not given here; further chemistry not fully specified) [compound 12786] | 80.1 °C
5 | 12787 (DNA GCAATGGCCTCGTCTTGGCCAACGA; DNA at ACG, LNA at T, backbone not given here; further chemistry not fully specified) [compound 12787] | 80.8 °C
6 | 12788 (DNA GATGAACTCAGGTGGATAGGATCTT; sugars from the 5' end ddlddddlddddldddlddddldld, backbone not given here; further chemistry not fully specified) [compound 12788] | 71 °C
7 | 12789 (DNA TCAGTTAGCCAATCCTTCGCTTCAT; sugars from the 5' end ldddllddddddlddlldddllddd, backbone not given here; further chemistry not fully specified) [compound 12789] | 75.7 °C
8 | 12790 (DNA GTTGCCATGGAGTTCAAAATCTGTC; sugars from the 5' end dllddddlddddlddddddldldld, backbone not given here; further chemistry not fully specified) [compound 12790] | 74.7 °C
9 | 12791 (DNA AGACGTACAGCATCAGAAATAGCAG; DNA at ACG, LNA at T, backbone not given here; further chemistry not fully specified) [compound 12791] | 71.4 °C
10 | 12792 (DNA TTTGGTAGCACGACAAGCTTAGTAT; sugars from the 5' end lllddlddddddddddddllddldd, backbone not given here; further chemistry not fully specified) [compound 12792] | 74.2 °C
11 | 12793 (DNA ATAAAGCTGGCAATAGGTCTCTTTT; sugars from the 5' end dldddddldddddldddldldllld, backbone not given here; further chemistry not fully specified) [compound 12793] | 74.3 °C
12 | 12794 (DNA TTTTTCGGCCAAACGATCTTGAATT; sugars from the 5' end ldllldddddddddddldlldddld, backbone not given here; further chemistry not fully specified) [compound 12794] | 71 °C
13 | 12795 (DNA CACTCTAACAGTTTCGCCGTTTCTA; sugars from the 5' end dddldlddddddlddddddllldld, backbone not given here; further chemistry not fully specified) [compound 12795] | 75.5 °C
14 | 12796 (DNA TCAATGGCCTTGCACCATATAATTG; DNA at ACG, LNA at T, backbone not given here; further chemistry not fully specified) [compound 12796] | 74 °C
15 | 12797 (DNA AAAACGACAGCATAAGGCTTTCTTC; DNA at ACG, LNA at T, backbone not given here; further chemistry not fully specified) [compound 12797] | 71.7 °C
16 | 12798 (DNA ATTGACCTCAAAACTTTCTTGGATA; DNA at ACG, LNA at T, backbone not given here; further chemistry not fully specified) [compound 12798] | 70.2 °C
17 | 12799 (DNA CCCAACTTTGTGTCGTTTAATAAAA; DNA at ACG, LNA at T, backbone not given here; further chemistry not fully specified) [compound 12799] | 75.1 °C

Row | Substance | Average duplex melting temp.
18 | 12800 (DNA ACCATCATCACCCAACCTTGTGTCG; sugars from the 5' end dlddlddldddllddddlddlddld, [5mC] at 2, 12, 13, 24, backbone not given here; further chemistry not fully specified) [compound 12800] | 74.2 °C
19 | 12802 (DNA TGGCCTAGGGAATCGGTCAGCTTAC; sugars from the 5' end lddldlddddddllddldddldldd, [5mC] at 4, 14, 21, backbone not given here; further chemistry not fully specified) [compound 12802] | 83.6 °C
20 | 12803 (DNA TTGGAAACATCGGGGTGCGCTTTTT; sugars from the 5' end lldddddlddlddddldldddldld, [5mC] at 8, 11, 18, backbone not given here; further chemistry not fully specified) [compound 12803] | 80.8 °C
21 | 12804 (DNA GAAACATCGGGGTGCGCTTTTTCAA; sugars from the 5' end ddddldllddddldldddddldldd, [5mC] at 5, 8, 15, 23, backbone not given here; further chemistry not fully specified) [compound 12804] | 83.2 °C
22 | 12805 (DNA GACAGCCTCAGTTAATTGGCCACCA; sugars from the 5' end ddlddldlddddlddlldddlddld, [5mC] at 3, 6, 21, 24, backbone not given here; further chemistry not fully specified) [compound 12805] | 82.5 °C
23 | 12806 (DNA CCGATTAAACGAGAGACAGTATGCT; sugars from the 5' end llddlldddlddddddlddldldld, all C 5-methyl, backbone not given here; further chemistry not fully specified) [compound 12806] | 79.4 °C
24 | 12807 (DNA ATCAAATAGGAATTCAGCTAAAGCC; sugars from the 5' end dlldddldddddldlddllddddld, [5mC] at 3, 15, 18, 24, backbone not given here; further chemistry not fully specified) [compound 12807] | 71.4 °C
25 | 12808 (DNA GACCTAAGAACATAAAGCTGGCAAT; sugars from the 5' end ddllldddddldlddddllddlddd, all C 5-methyl, backbone not given here; further chemistry not fully specified) [compound 12808] | 78.9 °C
26 | 12809 (DNA AAATAGCAGCAATGGCCTCGTCTTG; sugars from the 5' end dddlddlddlddlddldlldlddld, [5mC] at 7, 10, 16, 19, backbone not given here; further chemistry not fully specified) [compound 12809] | 86.8 °C
27 | 12810 (DNA ATAGCAGCAATGGCCTCGTCTTGGC; sugars from the 5' end dlddldddddlddldldddldlddd, [5mC] at 5, 14, 20, backbone not given here; further chemistry not fully specified) [compound 12810] | 83 °C
28 | 12811 (DNA GCAATGGCCTCGTCTTGGCCAACGA; sugars from the 5' end d10 l1 d1 l2 d11, [5mC] at 11, 14, backbone not given here; further chemistry not fully specified) [compound 12811] | 79.3 °C
29 | 12812 (DNA GATGAACTCAGGTGGATAGGATCTT; sugars from the 5' end ddldddllldddldddlddddllld, all C 5-methyl, backbone not given here; further chemistry not fully specified) [compound 12812] | 77.3 °C
30 | 12813 (DNA TCAGTTAGCCAATCCTTCGCTTCAT; sugars from the 5' end llddlddddlddldldlldlddldd, [5mC] at 2, 10, 15, 18, 20, 23, backbone not given here; further chemistry not fully specified) [compound 12813] | 81.8 °C
31 | 12814 (DNA GTTGCCATGGAGTTCAAAATCTGTC; sugars from the 5' end dlddlldlddddldlddddllddld, [5mC] at 5, 6, 15, 21, backbone not given here; further chemistry not fully specified) [compound 12814] | 78.3 °C
32 | 12815 (DNA AGACGTACAGCATCAGAAATAGCAG; DNA at AG, LNA at CT, all C 5-methyl, backbone not given here; further chemistry not fully specified) [compound 12815] | 81.9 °C
33 | 12816 (DNA TTTGGTAGCACGACAAGCTTAGTAT; sugars from the 5' end ldlddlddldlddldddldlddldd, all C 5-methyl, backbone not given here; further chemistry not fully specified) [compound 12816] | 79 °C
